Like-named read-outs stand apart in the source and are kept apart here.
System: TA100

## Cc1ccc(O)c2c3c([nH]c12)CCNCC3 [Cpd #1 (Pharm-136), 7-Methyl-1,2,3,4,5,6-hexahydroazepino[4,5-b]indol-10-ol]
TA100 + S9, 1.0E−04M
  Count (n. of wells): 0 n. of wells
  Significance: Negative
TA100 + S9, 1.0E−05M
  Count (n. of wells): 8 n. of wells
  Significance: Negative
TA100 + S9, 5.0E−05M
  Count (n. of wells): 1 n. of wells
  Significance: Negative
TA100 + S9, 5.0E−06M
  Count (n. of wells): 13 n. of wells
  Significance: Negative
TA100 − S9, 1.0E−04M
  Count (n. of wells): 0 n. of wells
  Significance: Negative
TA100 − S9, 1.0E−05M
  Count (n. of wells): 1 n. of wells
  Significance: Negative
TA100 − S9, 5.0E−05M
  Count (n. of wells): 0 n. of wells
  Significance: Negative
TA100 − S9, 5.0E−06M
  Count (n. of wells): 2 n. of wells
  Significance: Negative

From US20250296934A1, “AZEPINOINDOLES AND METHODS OF PREPARATION THEREOF” (priority 2022, published 2025)
